In patent publication US20240180138A1, “Heating Transpiration Composition, and Method for Exterminating Harmful Arthropods Using Same” (SUMITOMO CHEMICAL COMPANY, LIMITED, priority 2021, published 2024):

Legend:
Type in all cases: in vivo
[1] = target: Common house mosquito (Culex pipiens pallens) female adult insects; assay: Test Example 3: knockdown by burning insect repellent incense in metallic cylinder, 10 minutes; details: B alone
Method: (§1) Wood powder 75 parts by weight, tab powder 5 parts by weight, lees powder 5 parts by weight, siam powder 10 parts by weight, and tapioca starch powder 5 parts by weight were mixed, and appropriate amount of water was added thereto and the resulting mixture was kneaded thoroughly. The kneaded mixture was molded to a sheet shape, and punched out to a spiral shape, and thereafter, the resulting mixture was dried to make an approximate degree of 7 to 10% by weight of moisture contents to prepare the blank insect repellent incense.
(§2) The acetone solution of the testing compounds that were diluted to make the prescribed concentrations were applied dropwise uniformly to the obtained blank insect repellent incense, and then air-dried to prepare the test formulation.
Common house mosquito (Culex pipiens pallens) female adult insects 20 were placed in the glass tube with 4.5 cm of a diameter and 12 cm of a height, and they were shut in the glass tube by covering the opening parts of the top and the bottom thereof with a nylon net having 16 mesh by a rubber band. […] Ten (10) minutes later, the number of knockdowned (hereinafter, abbreviated as “KD”) individuals were recorded. […]

[2] = target: Common house mosquito (Culex pipiens pallens) female adult insects; assay: Test Example 2: knockdown by burning insect repellent incense in metallic cylinder, 7 minutes; details: B alone
Method: as §1, §2
Common house mosquito (Culex pipiens pallens) female adult insects 20 were placed in the glass tube with 4.5 cm of a diameter and 12 cm of a height, and they were shut in the glass tube by covering the opening parts of the top and the bottom thereof with a nylon net having 16 mesh by a rubber band. A metallic cylinder with 22 cm of a diameter and 83 cm of the height was installed and set up, and two (2) of the above glass tube in which common house mosquito (Culex pipiens pallens) were placed were installed in the upper opening part and then fixed. The formulation that was prepared according to the above process was set to fire, and set up in the bottom opening part of the metallic cylinder. Seven (7) minutes later, the number of knockdowned (hereinafter, abbreviated as “KD”) individuals were recorded. The experiments were conducted in triple replicates to calculate the KD ratio.

[3] = target: Common house mosquito (Culex pipiens pallens) female adult insects; assay: Test Example 1: knockdown by burning insect repellent incense in metallic cylinder, 6 minutes; details: B alone, 0.01% in incense
Method: as §1, §2
Common house mosquito (Culex pipiens pallens) female adult insects 20 were placed in the glass tube with 4.5 cm of a diameter and 12 cm of a height, and they were shut in the glass tube by covering the opening parts of the top and the bottom thereof with a nylon net having 16 mesh by a rubber band. […] Six (6) minutes later, the number of individuals of knockdowned common house mosquito (Culex pipiens pallens) were recorded. […]

SMILES | KD ratio when used alone ([1]; 0.005%) | KD ratio when used alone ([2]; 0.005%) | KD ratio when used alone ([2]; 0.01%) | KD ratio when used alone [3] | KD ratio when used alone ([1]; 0.01%)
COCc1c(F)c(F)c(COC(=O)C2C(C=C(C)C)C2(C)C)c(F)c1F (centres unmarked) [Dimefluthrin, dimefluthrin] | KD ratio 45.0% | KD ratio 2.7% | KD ratio 68.3% |  | 
C/C=C/C1C(C(=O)OCc2c(F)c(F)c(COC)c(F)c2F)C1(C)C (centres unmarked) [Metofluthrin, metofluthrin] |  |  | KD ratio 75.0% | KD ratio 30.0% | 
CC1(C)[C@H](C=C(Cl)Cl)[C@H]1C(=O)OCc1c(F)c(F)cc(F)c1F [Transfluthrin, transfluthrin] |  | KD ratio 5.0% | KD ratio 10.0% |  | KD ratio 81.7%
